Consider twelve compounds from ChEMBL document CHEMBL1146120 (J Med Chem, 2006).

Experiment [1] addresses T1, Type-1 angiotensin II receptor (Homo sapiens) (UniProt P30556).
T1 sequence (whole entry): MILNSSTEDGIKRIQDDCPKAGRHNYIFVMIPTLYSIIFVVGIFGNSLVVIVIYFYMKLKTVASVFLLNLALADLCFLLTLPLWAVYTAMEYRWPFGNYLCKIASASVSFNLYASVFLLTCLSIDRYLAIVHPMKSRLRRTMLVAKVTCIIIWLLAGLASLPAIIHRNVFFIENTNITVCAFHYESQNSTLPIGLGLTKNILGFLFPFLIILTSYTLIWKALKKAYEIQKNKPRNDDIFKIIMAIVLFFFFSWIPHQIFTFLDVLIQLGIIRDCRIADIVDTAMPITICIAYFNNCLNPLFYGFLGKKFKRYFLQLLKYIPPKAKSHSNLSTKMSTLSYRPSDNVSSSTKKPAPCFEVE
The experiment in a line: Antagonist activity against AT1 receptor after 20 min preincubation. The experiment is classed as functional.

For experiment [2], the species on record is Rattus norvegicus. The experiment in a line: Activity against NO-mediated vasorelaxation of KCl-induced contractile tone in Wistar rat thoracic aortic ring at 1 uM. It counts as functional.
The species entered for experiment [3] is Rattus norvegicus. The experiment in a line: Inhibition of NO-mediated vasorelaxation of KCl-induced contractile tone in Wistar rat thoracic aortic ring. The experiment is classed as functional. The settings on record: Aorta.
The species named for experiment [4] is Rattus norvegicus. The experiment in a line: Activity against NO-mediated vasorelaxation of KCl-induced contractile tone in Wistar rat thoracic aortic ring. The experiment is classed as functional. As to conditions: Aorta.
Experiment [5] has as its system Plasma. The experiment in a line: Inhibition of ADP-mediated platelet aggregation in Wistar rat platelet-rich plasma at 100 uM. The experiment is classed as functional. Set-up: scale not given: the % may be the effect or the level left.
Experiment [6] concerns Rattus norvegicus. The experiment can be described thus: Antihypertrophic activity in Wistar rat at 21.3 mg/kg, ip. It counts as functional, organism-based. Set-up: dose 21.3 mg/kg.
For experiment [7], the target named is T1, Type-1 angiotensin II receptor (Homo sapiens). The experiment can be described thus: Antagonist activity against AT1 receptor after 60 min preincubation. The experiment is classed as functional.

Calls of active or inactive are those of the source. No cut-off for these calls is given here.

A word on the Kb: it is the equilibrium dissociation constant of an antagonist, usually derived from a functional assay. As a reminder, the IC50 is the concentration needed to halve the response being measured. One may read the Emax as the maximal effect, on the per cent scale that the assay sets.

On to `CCCCc1nc(Cl)c(C(=O)Oc2ccc(CO[N+](=O)[O-])cc2)n1Cc1ccc(-c2ccccc2-c2nn[nH]n2)cc1`, for which the Kb result in experiment [1] is “inactive”. In addition, the outcome in experiment [2] (Aorta) was Active. Also, in experiment [3], the IC50 was 0.275 µM. Also, the Emax in experiment [4] turned out to be 100%.

With `CCCCc1nc(Cl)c(COC(=O)c2cccc(CO[N+](=O)[O-])c2)n1Cc1ccc(-c2ccccc2-c2nn[nH]n2)cc1`, the Activity in experiment [5] is listed as 41%. The result in experiment [6] and in experiment [2] (Aorta) was Active. Further, in experiment [7], the Kb stood at 10 nM. 0.275 µM corresponded to half-maximal inhibition in experiment [3] (IC50). Further, the Emax in experiment [4] came to 100%.

Regarding `CCCCc1nc(Cl)c(COC(=O)c2ccc(CO[N+](=O)[O-])cc2)n1Cc1ccc(-c2ccccc2-c2nn[nH]n2)cc1`, the Kb in experiment [1] was determined as 19 nM. For the same compound, the result in experiment [2] (Aorta) was Active. This compound gave an IC50 in experiment [3] of 0.0661 µM. In experiment [4], the Emax amounted to 100%.

On to `CCCCc1nc(Cl)c(COC(=O)c2c(C)ccc(CO[N+](=O)[O-])c2C)n1Cc1ccc(-c2ccccc2-c2nn[nH]n2)cc1`, for which the Kb entry in experiment [1] is “inactive”. Moreover, in experiment [2], the Activity was under 25%. The compound also showed an IC50 in experiment [3] of 32.4 µM. The Emax in experiment [4] turned out to be 100%.

For the compound `CCCCc1nc(Cl)c(COC(=O)c2cccc(C(C)O[N+](=O)[O-])c2)n1Cc1ccc(-c2ccccc2-c2nn[nH]n2)cc1` (stereo not given), the Kb result in experiment [1] was “inactive”. Besides, in experiment [2], the Activity is given as under 25%. The compound also displayed an antagonist dissociation constant (Kb) in experiment [7] of 12 nM. For the same compound, the Emax in experiment [4] stood at 47%.

In the case of `C[C@H](CS)C(=O)N1CCC[C@H]1C(=O)O`, the result in experiment [6] was Active.

In the case of `CCCCc1nc(Cl)c(CO)n1Cc1ccc(-c2ccccc2-c2nnn[nH]2)cc1` [LOSARTAN], the Activity in experiment [5] is listed as 50%. The result in experiment [6] was Active.

`CCCCc1nc(Cl)c(COC(=O)c2cccc(CO[N+](=O)[O-])n2)n1Cc1ccc(-c2ccccc2-c2nn[nH]n2)cc1` showed a Kb in experiment [1] of 8 nM. In experiment [2], this compound showed an Activity of under 25%. The compound further gave an IC50 in experiment [3] of 12.3 µM. Further, the Emax in experiment [4] turned out to be 100%.

In the case of `CCCCc1nc(Cl)c(C(=O)Oc2cccc(CO[N+](=O)[O-])c2)n1Cc1ccc(-c2ccccc2-c2nn[nH]n2)cc1`, in experiment [2], the Activity is given as under 25%. This compound had an IC50 in experiment [3] of 6.03 µM. Further, in experiment [4], the Emax was found to be 100%.

With `CCCCc1nc(Cl)c(CO[N+](=O)[O-])n1Cc1ccc(-c2ccccc2-c2nn[nH]n2)cc1` [LOSARTAN NITROOXY ESTER], in experiment [1], the Kb result is “inactive”. The same compound had an Activity in experiment [2] of under 25%. In addition, the Kb in experiment [7] was found to be 3 nM. The same compound showed an IC50 in experiment [3] of 15.1 µM. The compound also had an Emax in experiment [4] of 100%.

As to `CCCCc1nc(Cl)c(COC(=O)c2ccc(C(C)O[N+](=O)[O-])cc2)n1Cc1ccc(-c2ccccc2-c2nn[nH]n2)cc1` (stereo not given), in experiment [1], the Kb result was “inactive”. Further, the Activity in experiment [2] is on record as under 25%. The compound also registered a Kb in experiment [7] of 8 nM. It took 7.76 µM to reach half-maximal inhibition in experiment [3] (IC50). The Emax in experiment [4] amounted to 100%.

In experiment [1], `CCCCc1nc(Cl)c(COC(=O)CCCCO[N+](=O)[O-])n1Cc1ccc(-c2ccccc2-c2nn[nH]n2)cc1` came in with a Kb of 16 nM. The compound further had a 50% inhibitory concentration (IC50) in experiment [3] of 0.851 µM. Further, in experiment [4], the Emax stood at 100%.
